Reference: PubChem BioAssay (NCI)
“And” between values parts separate entries of the source, which are not always exact repeats. Equal entries are not always repeated.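 Protocol summary: plate cells (96-well), add compound at 5 concentrations, incubate 48 h, interpolate endpoints linearly. Abbreviation: GI50, concentration required for 50% inhibition of growth. At the TGI there is no net growth.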 Where a SMILES comes first, the peptide text is derived from it. [ ]: non-standard residue; d: D form. Ac5c = NC1(C(=O)O)CCCC1

Columns and labels:
Experiment in all cases: NCI tumour cell line growth inhibition, 48 h
NCI/ADR-RES ovarian = tested on: NCI/ADR-RES ovarian
DU-145 prostate = tested on: DU-145 prostate
RXF 393 renal = tested on: RXF 393 renal
NCI-H226 lung = tested on: NCI-H226 lung
RPMI-8226 leukemia = tested on: RPMI-8226 leukemia
HS 578T breast = tested on: HS 578T breast
UACC-257 melanoma = tested on: UACC-257 melanoma
IGROV1 ovarian = tested on: IGROV1 ovarian
TK-10 renal = tested on: TK-10 renal
T-47D breast = tested on: T-47D breast

Compound	GI50 (NCI/ADR-RES ovarian)	TGI (NCI/ADR-RES ovarian)	GI50 (DU-145 prostate)	TGI (DU-145 prostate)	TGI (RXF 393 renal)	TGI (NCI-H226 lung)	GI50 (RPMI-8226 leukemia)	TGI (RPMI-8226 leukemia)	GI50 (HS 578T breast)	TGI (HS 578T breast)	TGI (UACC-257 melanoma)	GI50 (IGROV1 ovarian)	TGI (IGROV1 ovarian)	TGI (TK-10 renal)	TGI (T-47D breast)	GI50 (RXF 393 renal)	GI50 (NCI-H226 lung)	GI50 (UACC-257 melanoma)	GI50 (TK-10 renal)	GI50 (T-47D breast)
COC(=O)CCc1cc(OC)c2c(c1)C(C(=O)OC)C(c1ccc(OC)c(OC)c1)O2 (stereo not given)	> 100 µM and 26.8 µM	> 100 µM	> 100 µM	> 100 µM	> 100 µM	> 100 µM and 54.5 µM	> 100 µM and 22.3 µM	> 100 µM	> 100 µM and 43.4 µM	> 100 µM	> 100 µM	> 100 µM and 21.5 µM	> 100 µM	> 100 µM	> 100 µM	–	–	–	–	–
CSc1ccc(C2=NN(C(=O)c3ccc(F)cc3)C(c3ccc(F)cc3)C2)cc1 (stereo not given)	16 µM	33 µM	14.6 µM	29.3 µM	20 µM	34.3 µM	1.68 µM	4.2 µM	34.2 µM	64.2 µM	28.3 µM	4.91 µM	18.8 µM	22.8 µM	31.2 µM	4.8 µM	13.4 µM	14.7 µM	10.4 µM	12.2 µM
NC1(C(=O)NC2(C(=O)O)CCCC2)CCCC1 (H-[Ac5c]-[Ac5c]-OH)	–	> 100 µM	–	> 100 µM	> 100 µM	> 100 µM	–	> 100 µM	–	> 100 µM	> 100 µM	–	> 100 µM	> 100 µM	> 100 µM	–	–	–	–	–
Cc1nc2sc(C(=O)Nc3cccc(Cl)c3C)c(N)c2cc1C(=O)/C=C/c1ccccc1	0.176 µM	0.656 µM	0.769 µM	2.84 µM	0.801 µM	1.68 µM	0.14 µM	0.465 µM	0.38 µM	> 13.5 µM	12.6 µM	0.316 µM	1.1 µM	4.54 µM	2.4 µM	0.206 µM	0.483 µM	1.5 µM	1.06 µM	0.767 µM
CC1=C2[C@@H](CC1)[C@]1(C)O[C@@](C3CCCCC3)(C[C@H]1OC(=O)CO)[C@H]2OC(=O)/C=C/c1ccccc1	0.186 µM	11.6 µM	9.68 µM	23.4 µM	0.483 µM	23.5 µM	9.51 µM	33.2 µM	0.0202 µM	0.281 µM	26 µM	18.7 µM	44.1 µM	26.5 µM	17.5 µM	0.029 µM	7.58 µM	12.3 µM	12.3 µM	4.69 µM
COc1ccc(N2C(=O)CC(Cl)C2=O)cc1 (stereo not given)	–	> 100 µM	–	> 100 µM	40.7 µM	46.4 µM	–	37.2 µM	–	> 100 µM	29.7 µM	–	> 100 µM	32.9 µM	38.4 µM	–	–	–	–	–
C=CCC(N[C@H](CO)c1ccccc1)c1ccc2ccccc2n1 (stereo not given in full)	> 100 µM	> 100 µM	> 100 µM	> 100 µM	> 100 µM	> 100 µM	> 100 µM	> 100 µM	22.5 µM	> 100 µM	> 100 µM	45.9 µM	> 100 µM	> 100 µM	> 100 µM	> 100 µM	> 100 µM	> 100 µM	> 100 µM	> 100 µM
O=C(O[C@H]1CN[C@H](C#Cc2cc3ncnc(Nc4ccc5c(ccn5Cc5cc(F)ccc5F)c4)c3s2)C1)N1CCOCC1	3.7 µM	> 23.2 µM	2.17 µM	5.52 µM	3.32 µM	9.64 µM	4.65 µM	13.7 µM	0.488 µM	> 25 µM	10.6 µM	1.33 µM	> 16.7 µM	1.93 µM	7.1 µM	0.413 µM	3.2 µM	4.2 µM	0.0724 µM	0.206 µM
O=c1c2c(nc3n1CCS3)[nH]c1ccccc12	> 100 µM	> 100 µM	> 100 µM	> 100 µM	> 100 µM	> 100 µM	> 100 µM	> 100 µM	73.6 µM	> 100 µM	> 100 µM	17.8 µM	> 100 µM	> 100 µM	> 100 µM	58.6 µM	70.3 µM	> 100 µM	> 100 µM	> 100 µM
COc1ccc(/C=N\NC(=O)CN2CCN(c3cc4c(cc3F)c(=O)c(C(=O)N/N=C/c3ccc(OC)c(OC)c3)cn4C3CC3)CC2)cc1OC	> 100 µM	> 100 µM	3.54 µM	12 µM	15.2 µM	24 µM	2.77 µM	8.82 µM	2.51 µM	8.99 µM	37.6 µM	3.1 µM	17.1 µM	> 100 µM	8.78 µM	3.79 µM	4.44 µM	3.38 µM	23.6 µM	2.55 µM
